From patent US10202360B2 (CELGENE QUANTICEL RESEARCH, INC., priority 2016, dated 2019)
pIC50: −log10 of the molar value.

Target: CREBBP (Homo sapiens (Human), UniProt Q92793)
Assay: In vitro enzyme inhibition assay - CREBBP inhibition (AlphaScreen, biotinylated H4-tetraacetyl peptide)
Type: binding
Details: Table 28; AlphaScreen, H4-tetraacetyl peptide
How it was run: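 His-tagged CREBBP expressed in E. coli (50 nM final) incubated with biotinylated H4K5/8/12/16(Ac) peptide (20 nM final) in HEPES pH 7.3 buffer, 0.4% DMSO, 20 min at room temperature.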

Chain of CREBBP (Q92793 1081-1197): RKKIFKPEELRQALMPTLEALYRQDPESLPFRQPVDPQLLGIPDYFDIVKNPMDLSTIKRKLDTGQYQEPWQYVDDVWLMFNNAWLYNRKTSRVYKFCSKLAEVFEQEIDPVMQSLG

Row | Structure (SMILES) | pIC50
1 | Cc1ccc(F)c(Oc2nc(NS(=O)(=O)C(C)C)cc(-c3ccc(=O)n(C)c3)n2)c1F [Example 260, Propane-2-sulfonic acid [2-(2,6-difluoro-3-methyl-phenoxy)-6-(1-methyl-6-oxo-1,6-dihydro-pyridin-3-yl)-pyrimidin-4-yl]-amide] | > 6.30
2 | Cc1ccc(Cl)c(Oc2nc(NS(=O)(=O)C(C)C)cc(-c3ccc(=O)n(C)c3)n2)c1F [Example 261, Propane-2-sulfonic acid [2-(6-chloro-2-fluoro-3-methyl-phenoxy)-6-(1-methyl-6-oxo-1,6-dihydro-pyridin-3-yl)-pyrimidin-4-yl]-amide] | > 6.30
3 | Cc1ccc(Cl)c(Oc2nc(NS(=O)(=O)CCC(C)C)cc(-c3ccc(=O)n(C)c3)n2)c1F [Example 262, 3-Methyl-butane-1-sulfonic acid [2-(6-chloro-2-fluoro-3-methyl-phenoxy)-6-(1-methyl-6-oxo-1,6-dihydro-pyridin-3-yl)-pyrimidin-4-yl]-amide] | > 6.30
4 | Cn1cc(-c2cc(NS(=O)(=O)CC3CC3)nc(Oc3c(F)cccc3Cl)n2)ccc1=O [Example 263, N-[2-(2-Chloro-6-fluoro-phenoxy)-6-(1-methyl-6-oxo-1,6-dihydro-pyridin-3-yl)-pyrimidin-4-yl]-C-cyclopropyl-methanesulfonamide] | > 6.30
5 | Cc1cccc(Cl)c1Oc1nc(NS(=O)(=O)CC2CC2)cc(-c2ccc(=O)n(C)c2)n1 [Example 264, N-[2-(2-Chloro-6-methyl-phenoxy)-6-(1-methyl-6-moxo-1,6-dihydro-pyridin-3-yl)-pyrimidin-4-yl]-C-cyclopropyl-methanesulfonamide] | > 6.30
6 | Cc1ccc(F)c(Oc2nc(NS(=O)(=O)CCC(C)C)cc(-c3ccc(=O)n(C)c3)n2)c1Cl [Example 265, 3-Methyl-butane-1-sulfonic acid [2-(2-chloro-6-fluoro-3-methyl-phenoxy)-6-(1-methyl-6-oxo-1,6-dihydro-pyridin-3-yl)-pyrimidin-4-yl]-amide] | > 6.30
7 | Cc1cccc(Cl)c1Oc1nc(NS(=O)(=O)CCC2CC2)cc(-c2ccc(=O)n(C)c2)n1 [Example 266, 2-Cyclopropyl-ethanesulfonic acid [2-(2-chloro-6-methyl-phenoxy)-6-(1-methyl-6-oxo-1,6-dihydro-pyridin-3-yl)-pyrimidin-4-yl]-amide] | > 6.30
8 | Cn1cc(-c2cc(NS(=O)(=O)CCC3CC3)nc(Oc3c(F)cccc3Cl)n2)ccc1=O [Example 268, 2-Cyclopropyl-ethanesulfonic acid [2-(2-chloro-6-fluoro-phenoxy)-6-(1-methyl-6-oxo-1,6-dihydro-pyridin-3-yl)-pyrimidin-4-yl]-amide] | > 6.30
9 | Cc1cc(-c2cc(N)nc(Oc3ccc(F)cc3F)n2)cn(C)c1=O [Example 270, 5-(6-amino-2-(2,4-difluorophenoxy)pyrimidin-4-yl)-1,3-dimethy-lpyridin-2(1H)-one] | > 6.30
10 | Cc1cc(-c2cc(NCCc3ccccc3)nc(Oc3ccc(F)cc3F)n2)cn(C)c1=O [Example 271, 5-(2-(2,4-difluorophenoxy)-6-(phenethylamino)pyrimidin-4-yl)-1,3-dimethylpyridin-2(1H)-one] | > 6.30
11 | Cc1cc(-c2cc(NCc3ccccc3)nc(Oc3ccc(F)cc3F)n2)cn(C)c1=O [Example 272, 5-(6-(benzylamino)-2-(2,4-difluorophenoxy)pyrimidin-4-yl)-1,3-dimethylpyridin-2(1H)-one] | > 6.30
12 | Cn1cc(-c2cc(NCc3ccccc3)nc(Oc3ccc(F)cc3F)n2)ccc1=O [Example 274, 5-(6-(benzylamino)-2-(2,4-difluorophenoxy)pyrimidin-4-yl)-1-methylpyridin-2(1H)-one] | > 6.30
13 | CN(Cc1ccccc1)c1cc(-c2ccc(=O)n(C)c2)nc(Oc2ccc(F)cc2F)n1 [Example 275, 5-(6-(benzyl(methyl)amino)-2-(2,4-difluorophenoxy)pyrimidin-4-yl)-1-methylpyridin-2(1H)-one] | > 6.30
14 | Cn1cc(-c2cc(Nc3ccccc3)nc(Oc3ccc(F)cc3F)n2)ccc1=O [Example 276, 5-(2-(2,4-difluorophenoxy)-6-(phenylamino)pyrimidin-4-yl)-1-methylpyridin-2(1H)-one] | > 6.30
15 | CCN(CC)c1cc(-c2ccc(=O)n(C)c2)nc(Oc2ccc(F)cc2F)n1 [Example 277, 5-(6-(diethylamino)-2-(2,4-difluorophenoxy)pyrimidin-4-yl)-1-methylpyridin-2(1H)-one] | > 6.30
16 | CCOc1ccc(C(C)Nc2cc(-c3ccc(=O)n(C)c3)nc(Oc3c(C)cccc3F)n2)cc1 (centres unmarked) [Example 278, 5-(6-((1-(4-ethoxyphenyl)ethyl)amino)-2-(2-fluoro-6-methylphenoxy)pyrimidin-4-yl)-1-methylpyridin-2(1H)-one] | > 6.30
17 | CCc1ccc(C(C)Nc2cc(-c3ccc(=O)n(C)c3)nc(Oc3c(C)cccc3F)n2)cc1 (centres unmarked) [Example 279, 5-(6-((1-(4-ethylphenyl)ethyl)amino)-2-(2-fluoro-6-methylphenoxy)pyrimidin-4-yl)-1-methylpyridin-2(1H)-one] | > 6.30
18 | Cc1cccc(F)c1Oc1nc(NC2CCCc3ccccc32)cc(-c2ccc(=O)n(C)c2)n1 (centres unmarked) [Example 280, 5-(2-(2-fluoro-6-methylphenoxy)-6-((1,2,3,4-tetrahydronaphthalen-1-yl)amino)pyrimidin-4-yl)-1-methylpyridin-2(1H)-one] | > 6.30

Row | Structure (SMILES) | pIC50
19 | Cc1cccc(F)c1Oc1nc(NC(C)C)cc(-c2ccc(=O)n(C)c2)n1 [Example 281, 5-(2-(2-fluoro-6-methylphenoxy)-6-(isopropylamino)pyrimidin-4-yl)-1-methylpyridin-2(1H)-one] | > 6.30
20 | Cc1cccc(Cl)c1Oc1nc(NC(C)c2ccccc2)cc(-c2ccc(=O)n(C)c2)n1 (centres unmarked) [Example 282, 5-(2-(2-chloro-6-methylphenoxy)-6-((1-phenylethyl)amino)pyrimidin-4-yl)-1-methylpyridin-2(1H)-one] | > 6.30
21 | Cc1cccc(Cl)c1Oc1nc(NC(C)C)cc(-c2ccc(=O)n(C)c2)n1 [Example 283, 5-(2-(2-chloro-6-methylphenoxy)-6-(isopropylamino)pyrimidin-4-yl)-1-methylpyridin-2(1H)-one] | > 6.30
22 | Cc1cccc(Cl)c1Oc1nc(NC2CCCC2)cc(-c2ccc(=O)n(C)c2)n1 [Example 284, 5-(2-(2-chloro-6-methylphenoxy)-6-(cyclopentylamino)pyrimidin-4-yl)-1-methylpyridin-2(1H)-one] | > 6.30
23 | Cc1cccc(F)c1Oc1nc(NC2CCCC2)cc(-c2ccc(=O)n(C)c2)n1 [Example 285, 5-(6-(cyclopentylamino)-2-(2-fluoro-6-methylphenoxy)pyrimidin-4-yl)-1-methylpyridin-2(1H)-one] | > 6.30
24 | Cc1cccc(F)c1Oc1nc(NCC2CCCc3ccccc32)cc(-c2ccc(=O)n(C)c2)n1 (centres unmarked) [Example 286, 5-(2-(2-fluoro-6-methylphenoxy)-6-(((1,2,3,4-tetrahydronaphthalen-1-yl)methyl)amino)pyrimidin-4-yl)-1-methylpyridin-2(1H)-one] | > 6.30
25 | Cc1cccc(F)c1Oc1nc(N[C@H]2CCc3ccccc32)cc(-c2ccc(=O)n(C)c2)n1 [Example 287, (S)-5-(6-((2,3-dihydro-1H-inden-1-yl)amino)-2-(2-fluoro-6-methylphenoxy)pyrimidin-4-yl)-1-methylpyridin-2(1H)-one] | > 6.30
26 | Cc1cccc(C(C)Nc2cc(-c3ccc(=O)n(C)c3)nc(Oc3c(C)cccc3F)n2)n1 (centres unmarked) [Example 288, 5-(2-(2-fluoro-6-methylphenoxy)-6-((1-(6-methylpyridin-2-yl)ethyl)amino)pyrimidin-4-yl)-1-methylpyridin-2(1H)-one] | > 6.30
27 | Cc1cccc(CNc2cc(-c3ccc(=O)n(C)c3)nc(Oc3c(C)cccc3F)n2)n1 [Example 289, 5-(2-(2-fluoro-6-methylphenoxy)-6-(((6-methylpyridin-2-yl)methyl)amino)pyrimidin-4-yl)-1-methylpyridin-2(1H)-one] | > 6.30
28 | Cc1ccc(CNc2cc(-c3ccc(=O)n(C)c3)nc(Oc3c(C)cccc3F)n2)cn1 [Example 290, 5-(2-(2-fluoro-6-methylphenoxy)-6-(((6-methylpyridin-3-yl)methyl)amino)pyrimidin-4-yl)-1-methylpyridin-2(1H)-one] | > 6.30
29 | CCNc1cc(-c2ccc(=O)n(C)c2)nc(Oc2c(C)cccc2F)n1 [Example 291, 5-[6-Ethylamino-2-(2-fluoro-6-methyl-phenoxy)-pyrimidin-4-yl]-1-methyl-1H-pyridin-2-one] | > 6.30
30 | Cc1cccc(F)c1Oc1nc(NCc2ccccc2)cc(-c2ccc(=O)n(C)c2)n1 [Example 292, 5-[6-Benzylamino-2-(2-fluoro-6-methyl-phenoxy)-pyrimidin-4-yl]-1-methyl-1H-pyridin-2-one] | > 6.30
31 | Cc1cccc(F)c1Oc1nc(-c2ccc(=O)n(C)c2)cc(N(C)Cc2ccccc2)n1 [Example 293, 5-[6-(Benzyl-methyl-amino)-2-(2-fluoro-6-methyl-phenoxy)-pyrimidin-4-yl]-1-methyl-1H-pyridin-2-one] | > 6.30
32 | Cc1cccc(F)c1Oc1nc(N)cc(-c2cc(C)c(=O)n(C)c2)n1 [Example 294, 5-[6-Amino-2-(2-fluoro-6-methyl-phenoxy)-pyrimidin-4-yl]-1,3-dimethyl-1H-pyridin-2-one] | > 6.30
33 | CCNc1cc(-c2cc(C)c(=O)n(C)c2)nc(Oc2c(C)cccc2F)n1 [Example 295, 5-[6-Ethylamino-2-(2-fluoro-6-methyl-phenoxy)-pyrimidin-4-yl]-1,3-dimethyl-1H-pyridin-2-one] | > 6.30
34 | Cc1cccc(F)c1Oc1nc(NCc2ccccc2)cc(-c2cc(C)c(=O)n(C)c2)n1 [Example 296, 5-[6-Benzylamino-2-(2-fluoro-6-methyl-phenoxy)-pyrimidin-4-yl]-1,3-dimethyl-1H-pyridin-2-one] | > 6.30
35 | Cc1cccc(F)c1Oc1nc(-c2cc(C)c(=O)n(C)c2)cc(N(C)Cc2ccccc2)n1 [Example 297, 5-[6-(Benzyl-methyl-amino)-2-(2-fluoro-6-methyl-phenoxy)-pyrimidin-4-yl]-1,3-dimethyl-1H-pyridin-2-one] | > 6.30
